Test results published in patent US11827627B2, “N-(hydroxyalkyl (hetero)aryl) tetrahydrofuran carboxamides as modulators of sodium channels” (VERTEX PHARMACEUTICALS INCORPORATED, priority 2021, dated 2023).

biological target: human NaV 1.8 (Homo sapiens, UniProt Q9Y5Y9); test: E-VIPR assay detecting and measuring NaV inhibition properties; format: cell-based; conditions: HEK cells expressing a truncated form of human NaV 1.8; electrical stimulation, membrane potential FRET dyes
Excerpt: E-VIPR Assay Detecting and Measuring NaV Inhibition Properties
Sodium ion channels are voltage-dependent proteins that can be activated by inducing membrane voltage changes by applying electric fields. The electrical stimulation instrument and methods of use, referred to as E-VIPR, are described in International Publication No. WO 2002/008748 A3 and C.-J. Huang et al. Characterization of voltage-gated sodium channel blockers by electrical stimulation and fluorescence detection of membrane potential, 24 Nature Biotech. 439-46 (2006), both of which are incorporated by reference in their entirety. The instrument comprises a microtiter plate handler, an optical system for exciting the coumarin dye while simultaneously recording the coumarin and oxonol emissions, a waveform generator, a current- or voltage-controlled amplifier, and parallel electrode pairs that are inserted into assay plate wells. Under integrated computer control, this instrument passes user-programmed electrical stimulus protocols to cells within the wells of the microtiter plate.
16-20 hours prior to running the assay on E-VIPR, HEK cells expressing a truncated form of human NaV 1.8 with full channel activity were seeded into microtiter 384-well plates, pre-coated with matrigel, at a density of 25,000 cells per well. 2.5-5% KIR2.1 Bacmam virus was added to the final cell suspension before seeding into cell plates. HEK cells were grown in Dulbecco's Modified Eagle's Medium (DMEM) supplemented with 10% FBS (Fetal Bovine Serum, qualified; Sigma #F4135), 1% NEAA (Non-Essential Amino Acids, Gibco #11140), 1% HEPES (Gibco #15630), 1% Pen-Strep (Penicillin-Streptomycin; Gibco #15140) and 5 μg/ml Blasticidin (Gibco #R210-01). Cells were expanded in vented cap cell culture flasks, with 90-95% humidity and 5% CO2.
Reagents and Stock Solutions:
100 mg/mL Pluronic F-127 (Sigma #P2443), in dry DMSO
Compound Plates: Corning 384-well Polypropylene Round Bottom #3656
Cell Plates: 384-well tissue culture treated plates (Greiner #781091-2B)
2.5-5% KIR 2.1 Bacmam virus (produced in-house), prepared as described in Section 3.3 of J. A. Fornwald et al., Gene Expression in Mammalian Cells Using BacMam, a Modified Baculovirus System, 1350 Methods in Molecular Biology 95-116 (2016), the entire contents of which are incorporated by reference. The concentration used can be dependent on viral titer of each batch.
5 mM DiSBAC6(3), a voltage sensitive oxonol acceptor (CAS number 169211-44-3; 5-[3-(1,3-dihexylhexahydro-4,6-dioxo-2-thioxo-5-pyrimidinyl)-2-propen-1-ylidene]-1,3-dihexyldihydro-2-thioxo-4,6(1H,5H)-pyrimidinedione), in dry DMSO. The preparation of DiSBAC6(3) is analogous to that of DiSBAC4(3) as described in Voltage Sensing by Fluorescence Resonance Energy Transfer in Single Cells, Gonzalez, J. E. and Tsien, R. Y. (1995) Biophys. J. 69, 1272-1280.
5 mM CC2-DMPE, a commercially available membrane-bound coumarin phospholipid FRET donor (ThermoFisher Scientific catalog number K1017, CAS number 393782-57-5; tetradecanoic acid, 1,1′-[(1R)-1-[8-(6-chloro-7-hydroxy-2-oxo-2H-1-benzopyran-3-yl)-3-hydroxy-3-oxido-8-oxo-2,4-dioxa-7-aza-3-phosphaoct-1-yl]-1,2-ethanediyl]ester) was prepared in dry DMSO. See also, Improved indicators of cell membrane potential that use fluorescence resonance energy transfer, Gonzalez, J. E. and Tsien, R. Y. (1997) Chem. Biol. 4, 269-277.
Voltage Assay Background Suppression Compound (VABSC-1) is prepared in H2O (89-363 mM, range used to maintain solubility)
Human Serum (HS, Millipore #S1P1-01KL, or Sigma SLBR5469V and SLBR5470V as a 50%/50% mixture, for 25% assay final concentration)
Bath 1 Buffer: • Sodium Chloride 160 mM (9.35 g/L), Potassium Chloride, 4.5 mM (0.335 g/L), Glucose 10 mM (1.8 g/L), Magnesium Chloride (Anhydrous) 1 mM (0.095 g/L), Calcium Chloride 2 mM (0.222 g/L), HEPES 10 mM (2.38 g/L) in water. […]

human NaV 1.8, sequence (Q9Y5Y9 126-1722 limits assumed): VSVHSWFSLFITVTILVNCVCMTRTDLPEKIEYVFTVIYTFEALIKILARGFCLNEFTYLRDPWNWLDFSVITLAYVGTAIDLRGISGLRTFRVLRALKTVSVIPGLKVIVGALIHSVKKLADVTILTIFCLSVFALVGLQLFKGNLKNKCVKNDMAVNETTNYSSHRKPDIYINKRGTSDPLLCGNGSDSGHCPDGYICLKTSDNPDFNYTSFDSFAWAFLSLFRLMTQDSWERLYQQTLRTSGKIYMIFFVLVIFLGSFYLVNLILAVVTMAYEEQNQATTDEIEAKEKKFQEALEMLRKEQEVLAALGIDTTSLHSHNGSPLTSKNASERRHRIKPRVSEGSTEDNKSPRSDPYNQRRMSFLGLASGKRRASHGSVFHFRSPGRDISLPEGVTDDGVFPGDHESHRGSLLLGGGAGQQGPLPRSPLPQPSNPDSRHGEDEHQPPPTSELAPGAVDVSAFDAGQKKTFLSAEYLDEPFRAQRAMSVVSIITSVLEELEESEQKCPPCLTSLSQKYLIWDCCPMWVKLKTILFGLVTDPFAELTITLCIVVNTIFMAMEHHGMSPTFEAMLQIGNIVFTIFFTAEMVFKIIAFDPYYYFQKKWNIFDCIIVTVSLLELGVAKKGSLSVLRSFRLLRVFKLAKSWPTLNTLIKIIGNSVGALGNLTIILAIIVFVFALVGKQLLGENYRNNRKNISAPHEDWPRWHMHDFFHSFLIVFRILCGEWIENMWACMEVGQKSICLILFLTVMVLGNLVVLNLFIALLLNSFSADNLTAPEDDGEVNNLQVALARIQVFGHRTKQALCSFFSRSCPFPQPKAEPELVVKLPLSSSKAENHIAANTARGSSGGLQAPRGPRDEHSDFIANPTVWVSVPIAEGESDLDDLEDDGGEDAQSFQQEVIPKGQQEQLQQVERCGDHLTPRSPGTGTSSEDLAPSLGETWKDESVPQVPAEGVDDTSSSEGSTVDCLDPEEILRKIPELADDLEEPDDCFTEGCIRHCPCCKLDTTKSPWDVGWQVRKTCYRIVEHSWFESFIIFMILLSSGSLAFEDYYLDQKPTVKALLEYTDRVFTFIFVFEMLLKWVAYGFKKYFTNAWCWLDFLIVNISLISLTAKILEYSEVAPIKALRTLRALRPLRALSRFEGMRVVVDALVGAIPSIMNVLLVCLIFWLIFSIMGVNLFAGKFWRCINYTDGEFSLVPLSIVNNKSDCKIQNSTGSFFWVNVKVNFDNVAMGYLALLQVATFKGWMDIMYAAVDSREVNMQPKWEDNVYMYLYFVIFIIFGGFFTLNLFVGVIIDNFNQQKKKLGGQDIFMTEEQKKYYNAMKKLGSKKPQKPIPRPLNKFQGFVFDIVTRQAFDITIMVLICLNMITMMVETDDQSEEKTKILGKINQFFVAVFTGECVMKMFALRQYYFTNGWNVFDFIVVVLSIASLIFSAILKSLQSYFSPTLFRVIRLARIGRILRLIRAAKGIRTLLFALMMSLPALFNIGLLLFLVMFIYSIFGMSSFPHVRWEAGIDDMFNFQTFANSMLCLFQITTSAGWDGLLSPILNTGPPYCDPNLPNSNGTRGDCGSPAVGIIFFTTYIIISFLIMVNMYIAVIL

Compound | IC50 [µM]
C[C@@]1(C(F)(F)F)C[C@H](c2ccc(OC(F)(F)F)cc2Cl)[C@@H](C(=O)Nc2ccc([C@@H](O)CO)nc2)O1 (single isomer, unassigned) [Compound 61, rel-(2S,3R,5S)-3-(2-chloro-4-(trifluoromethoxy)phenyl)-N-(6-((R*)-1,2-dihydroxyethyl)pyridin-3-yl)-5-methyl-5-(trifluoromethyl)tetrahydrofuran-2-carboxamide] | ≥ 1
C[C@]1(C(F)(F)F)C[C@@H](c2ccc(OC(F)(F)F)cc2Cl)[C@H](C(=O)Nc2ccc([C@@H](O)CO)nc2)O1 (single isomer, unassigned) [Compound 62, rel-(2R,3S,5R)-3-(2-chloro-4-(trifluoromethoxy)phenyl)-N-(6-((R*)-1,2-dihydroxyethyl)pyridin-3-yl)-5-methyl-5-(trifluoromethyl)tetrahydrofuran-2-carboxamide] | 0.1 to 1
C[C@@]1(C(F)(F)F)C[C@@H](c2ccc(OC(F)(F)F)cc2Cl)[C@H](C(=O)Nc2ccc([C@@H](O)CO)nc2)O1 (single isomer, unassigned) [Compound 63, rel-(2R,3S,5S)-3-(2-chloro-4-(trifluoromethoxy)phenyl)-N-(6-((R*)-1,2-dihydroxyethyl)pyridin-3-yl)-5-methyl-5-(trifluoromethyl)tetrahydrofuran-2-carboxamide] | ≥ 1
C[C@]1(C(F)(F)F)C[C@H](c2ccc(OC(F)(F)F)cc2Cl)[C@@H](C(=O)Nc2ccc([C@@H](O)CO)nc2)O1 (single isomer, unassigned) [Compound 64, rel-(2S,3R,5R)-3-(2-chloro-4-(trifluoromethoxy)phenyl)-N-(6-((R*)-1,2-dihydroxyethyl)pyridin-3-yl)-5-methyl-5-(trifluoromethyl)tetrahydrofuran-2-carboxamide] | ≥ 1
Cc1c([C@@H]2[C@@H](C(=O)Nc3ccc([C@@H](O)CO)nc3)O[C@@](C)(C(F)(F)F)[C@H]2C)ccc(F)c1F (single isomer, unassigned) [Compound 65, rel-(2S,3R,4S,5R)-3-(3,4-difluoro-2-methylphenyl)-N-(6-((R*)-1,2-dihydroxyethyl)pyridin-3-yl)-4,5-dimethyl-5-(trifluoromethyl)tetrahydrofuran-2-carboxamide] | ≥ 1
Cc1c([C@H]2[C@H](C(=O)Nc3ccc([C@@H](O)CO)nc3)O[C@@](C)(C(F)(F)F)[C@H]2C)ccc(F)c1F (single isomer, unassigned) [Compound 66, rel-(2R,3S,4S,5R)-3-(3,4-difluoro-2-methylphenyl)-N-(6-((R*)-1,2-dihydroxyethyl)pyridin-3-yl)-4,5-dimethyl-5-(trifluoromethyl)tetrahydrofuran-2-carboxamide] | 0.01 to 0.1
Cc1c([C@@H]2[C@@H](C)[C@@](C)(C(F)(F)F)O[C@H]2C(=O)Nc2ccc([C@@H](O)CO)nc2)ccc(F)c1F (single isomer, unassigned) [Compound 67, rel-(2R,3S,4R,5S)-3-(3,4-difluoro-2-methylphenyl)-N-(6-((R*)-1,2-dihydroxyethyl)pyridin-3-yl)-4,5-dimethyl-5-(trifluoromethyl)tetrahydrofuran-2-carboxamide] | ≥ 1
Cc1c([C@@H]2[C@@H](C(=O)Nc3ccc([C@@H](O)CO)nc3)O[C@](C)(C(F)(F)F)[C@@H]2C)ccc(F)c1F (single isomer, unassigned) [Compound 68, rel-(2S,3R,4R,5S)-3-(3,4-difluoro-2-methylphenyl)-N-(6-((R*)-1,2-dihydroxyethyl)pyridin-3-yl)-4,5-dimethyl-5-(trifluoromethyl)tetrahydrofuran-2-carboxamide] | ≥ 1
COc1c([C@@H]2[C@@H](C(=O)Nc3ccc([C@@H](O)CO)nc3)O[C@](C)(C(F)(F)F)[C@@H]2C)cccc1C(F)(F)F (single isomer, unassigned) [Compound 69, rel-(2S,3R,4R,5S)-N-(6-((R*)-1,2-dihydroxyethyl)pyridin-3-yl)-3-(2-methoxy-3-(trifluoromethyl)phenyl)-4,5-dimethyl-5-(trifluoromethyl)tetrahydrofuran-2-carboxamide] | ≥ 1
COc1c([C@H]2[C@H](C(=O)Nc3ccc([C@@H](O)CO)nc3)O[C@@](C)(C(F)(F)F)[C@H]2C)cccc1C(F)(F)F (single isomer, unassigned) [Compound 70, rel-(2R,3S,4S,5R)-N-(6-((R*)-1,2-dihydroxyethyl)pyridin-3-yl)-3-(2-methoxy-3-(trifluoromethyl)phenyl)-4,5-dimethyl-5-(trifluoromethyl)tetrahydrofuran-2-carboxamide] | < 0.01
COc1c([C@H]2[C@H](C(=O)Nc3cnc(C(O)CO)nc3)O[C@@](C)(C(F)(F)F)[C@H]2C)cccc1C(F)(F)F (single isomer, unassigned) [Compound 71] | 0.1 to 1
COc1c([C@@H]2[C@@H](C(=O)Nc3cnc(C(O)CO)nc3)O[C@](C)(C(F)(F)F)[C@@H]2C)cccc1C(F)(F)F (single isomer, unassigned) [Compound 72] | ≥ 1
COc1c([C@H]2[C@H](C(=O)Nc3cnc(C(O)CO)nc3)O[C@@](C)(C(F)(F)F)[C@H]2C)cccc1C(F)(F)F (single isomer, unassigned) [Compound 73] | 0.01 to 0.1
CCOc1ccc([C@H]2[C@H](C(=O)Nc3ccc([C@@H](O)CO)nc3)O[C@@](C)(C(F)(F)F)[C@H]2C)c2c1OC(F)(F)O2 (single isomer, unassigned) [Compound 75, rel-(2R,3S,4S,5R)-N-(6-((R*)-1,2-dihydroxyethyl)pyridin-3-yl)-3-(7-ethoxy-2,2-difluorobenzo[d][1,3]dioxol-4-yl)-4,5-dimethyl-5-(trifluoromethyl)tetrahydrofuran-2-carboxamide] | ≥ 1
Cc1c([C@@H]2[C@@H](C)[C@@](C)(C(F)(F)F)O[C@H]2C(=O)Nc2ccc(CO)nc2)ccc(F)c1F (single isomer, unassigned) [Compound 77] | ≥ 1
Cc1c([C@@H]2[C@@H](C(=O)Nc3ccc(CO)nc3)O[C@](C)(C(F)(F)F)[C@@H]2C)ccc(F)c1F (single isomer, unassigned) [Compound 78] | ≥ 1
Cc1c([C@@H]2[C@@H](C(=O)Nc3ccc(CO)nc3)O[C@@](C)(C(F)(F)F)[C@H]2C)ccc(F)c1F (single isomer, unassigned) [Compound 79] | ≥ 1
Cc1c([C@H]2[C@H](C(=O)Nc3ccc(CO)nc3)O[C@@](C)(C(F)(F)F)[C@H]2C)ccc(F)c1F (single isomer, unassigned) [Compound 80] | < 0.01
COc1c(C2C(C(=O)Nc3ccc(CO)nc3)OC(C)(C(F)(F)F)C2C)cccc1C(F)(F)F (single isomer, unassigned) [Compound 81] | ≥ 1
COc1c(C2C(C(=O)Nc3ccc(CO)nc3)OC(C)(C(F)(F)F)C2C)cccc1C(F)(F)F (single isomer, unassigned) [Compound 82] | < 0.01
COc1c(C2C(C(=O)Nc3ccc(CO)nc3)OC(C)(C(F)(F)F)C2C)ccc(C(F)F)c1F (single isomer, unassigned) [Compound 90] | ≥ 1
COc1c(C2C(C(=O)Nc3ccc(CO)nc3)OC(C)(C(F)(F)F)C2C)ccc(C(F)F)c1F (single isomer, unassigned) [Compound 91] | 0.01 to 0.1
